From publication PMC10826971, “Evaluating protein cross-linking as a therapeutic strategy to stabilize SOD1 variants in a mouse model of familial ALS” (PLOS Biology, 2024)

Tests used:
SOD1 = SOD1 (Homo sapiens, UniProt P00441); type: binding
Protocol: A computational search was performed in PubChem to identify all compounds containing a cyclic disulfide motif. […] Of these, 69 compounds cross-linked SOD1 with a wide array of reaction rates. Only 2 compounds could cross-link 100% of SOD1 during the assay, including one 5-membered cyclic disulfide (4-Amino-1,2-Dithiolane-4-Carboxylic Acid) and one 6-membered cyclic thiosulfinate (1,2-dithiane 1-oxide).

transthyretin = conditions: only approved drug with a kinetic stabilizing mechanism; cited from earlier work

Chain of SOD1 (P00441 2-154 limits assumed): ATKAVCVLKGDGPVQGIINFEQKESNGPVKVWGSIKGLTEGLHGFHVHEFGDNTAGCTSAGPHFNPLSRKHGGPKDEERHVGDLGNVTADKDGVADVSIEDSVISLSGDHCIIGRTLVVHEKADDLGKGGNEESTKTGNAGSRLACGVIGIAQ

For `NC1(C(=O)O)CSSC1` [4-Amino-1,2-Dithiolane-4-Carboxylic Acid], which “SOD1 cross-linked during the assay” value (SOD1) is on record?
Its value is 100%.

For `O=C(O)c1ccc2nc(-c3cc(Cl)cc(Cl)c3)oc2c1` [tafamidis], which “increase in thermal stability” value (transthyretin) is on record?
The value was 6 °C.
